Assay results taken from the NIST ThermoML archive (doi:10.1016/j.jct.2019.02.020).
Numbers after ± are expanded uncertainties.

Assay: mn = molality of the nth substance listed, in mol/kg
Settings: 100 kPa, Liquid; for viscosity: Falling or rolling sphere viscometry; for mass density: Vibrating tube method

O=S(=O)(O)O [sulfuric acid] + O
Settings	mass density [kg/m3]	viscosity [mPa·s]
283.15 K, m1 = 0.05	1003.29 ± 24	1.322 ± 0.13
283.15 K, m1 = 0.1	1006.64 ± 24	1.326 ± 0.13
283.15 K, m1 = 0.1498	1009.9 ± 24	1.339 ± 0.13
283.15 K, m1 = 0.1997	1013.13 ± 24	1.352 ± 0.14
283.15 K, m1 = 0.2501	1016.29 ± 24	1.363 ± 0.14
283.15 K, m1 = 0.2999	1019.54 ± 24	1.375 ± 0.14
283.15 K, m1 = 0.3312	–	1.386 ± 0.14
283.15 K, m1 = 0.3996	1025.76 ± 25	1.399 ± 0.14
283.15 K, m1 = 0.5001	1031.92 ± 25	1.415 ± 0.14
283.15 K, m1 = 0.6672	–	1.48 ± 0.15
283.15 K, m1 = 0.9962	–	1.502 ± 0.15
283.15 K, m1 = 1.331	–	1.653 ± 0.17
283.15 K, m1 = 1.669	–	1.733 ± 0.17
283.15 K, m1 = 2	–	1.817 ± 0.18
283.15 K, m1 = 2.327	–	1.914 ± 0.19
283.15 K, m1 = 2.667	–	2.017 ± 0.2
283.15 K, m1 = 2.994	–	2.154 ± 0.22
283.15 K, m1 = 3.33	–	2.28 ± 0.23
283.15 K, m1 = 3.667	–	2.331 ± 0.23
288.15 K, m1 = 0.05	1002.61 ± 24	1.151 ± 0.12
288.15 K, m1 = 0.1	1005.89 ± 24	1.156 ± 0.12
288.15 K, m1 = 0.1498	1009.09 ± 24	1.167 ± 0.12
288.15 K, m1 = 0.1997	1012.25 ± 24	1.179 ± 0.12
288.15 K, m1 = 0.2501	1015.35 ± 24	1.19 ± 0.12
288.15 K, m1 = 0.2999	1018.53 ± 24	1.2 ± 0.12
288.15 K, m1 = 0.3312	–	1.212 ± 0.12
288.15 K, m1 = 0.3996	1024.63 ± 25	1.221 ± 0.12
288.15 K, m1 = 0.5001	1030.68 ± 25	1.236 ± 0.12
288.15 K, m1 = 0.6672	–	1.294 ± 0.13
288.15 K, m1 = 0.9962	–	1.321 ± 0.13
288.15 K, m1 = 1.331	–	1.45 ± 0.15
288.15 K, m1 = 1.669	–	1.519 ± 0.15
288.15 K, m1 = 2	–	1.589 ± 0.16
288.15 K, m1 = 2.327	–	1.672 ± 0.17
288.15 K, m1 = 2.667	–	1.768 ± 0.18
288.15 K, m1 = 2.994	–	1.882 ± 0.19
288.15 K, m1 = 3.33	–	1.978 ± 0.2
288.15 K, m1 = 3.667	–	2.036 ± 0.2
293.15 K, m1 = 0.05	1001.64 ± 24	1.014 ± 0.1
293.15 K, m1 = 0.1	1004.86 ± 24	1.019 ± 0.1
293.15 K, m1 = 0.1498	1007.99 ± 24	1.029 ± 0.1
293.15 K, m1 = 0.1997	1011.1 ± 24	1.04 ± 0.1
293.15 K, m1 = 0.2501	1014.14 ± 24	1.049 ± 0.11
293.15 K, m1 = 0.2999	1017.27 ± 24	1.058 ± 0.11
293.15 K, m1 = 0.3312	1019.13 ± 24	1.07 ± 0.11
293.15 K, m1 = 0.3996	1023.27 ± 25	1.077 ± 0.11
293.15 K, m1 = 0.5001	1029.22 ± 25	1.091 ± 0.11
293.15 K, m1 = 0.6672	1039.1 ± 25	1.144 ± 0.11
293.15 K, m1 = 0.9962	1057.95 ± 25	1.172 ± 0.12
293.15 K, m1 = 1.331	1076.44 ± 26	1.282 ± 0.13
293.15 K, m1 = 1.669	1094.43 ± 26	1.343 ± 0.13
293.15 K, m1 = 2	1111.51 ± 27	1.406 ± 0.14
293.15 K, m1 = 2.327	1127.75 ± 27	1.476 ± 0.15
293.15 K, m1 = 2.667	1143.44 ± 27	1.569 ± 0.16
293.15 K, m1 = 2.994	1161.33 ± 28	1.663 ± 0.17
293.15 K, m1 = 3.33	1173.91 ± 28	1.725 ± 0.17
293.15 K, m1 = 3.667	1188.61 ± 29	1.794 ± 0.18
298.15 K, m1 = 0.05	1000.42 ± 24	0.9019 ± 0.09
298.15 K, m1 = 0.1	1003.57 ± 24	0.9068 ± 0.091
298.15 K, m1 = 0.1498	1006.66 ± 24	0.916 ± 0.092
298.15 K, m1 = 0.1997	1009.71 ± 24	0.9259 ± 0.093
298.15 K, m1 = 0.2501	1012.71 ± 24	0.9338 ± 0.094
298.15 K, m1 = 0.2999	1015.79 ± 24	0.9443 ± 0.095
298.15 K, m1 = 0.3312	–	0.9534 ± 0.096
298.15 K, m1 = 0.3996	1021.7 ± 25	0.9597 ± 0.096
298.15 K, m1 = 0.5001	1027.57 ± 25	0.9715 ± 0.097
298.15 K, m1 = 0.6672	–	1.024 ± 0.1
298.15 K, m1 = 0.9962	–	1.049 ± 0.11
298.15 K, m1 = 1.331	–	1.144 ± 0.11
298.15 K, m1 = 1.669	–	1.197 ± 0.12
298.15 K, m1 = 2	–	1.252 ± 0.13
298.15 K, m1 = 2.327	–	1.314 ± 0.13
298.15 K, m1 = 2.667	–	1.391 ± 0.14
298.15 K, m1 = 2.994	–	1.474 ± 0.15
298.15 K, m1 = 3.33	–	1.534 ± 0.15
298.15 K, m1 = 3.667	–	1.596 ± 0.16
303.15 K, m1 = 0.05	998.96 ± 24	0.8093 ± 0.081
303.15 K, m1 = 0.1	1002.07 ± 24	0.8127 ± 0.081
303.15 K, m1 = 0.1498	1005.1 ± 24	0.8218 ± 0.082
303.15 K, m1 = 0.1997	1008.12 ± 24	0.8307 ± 0.083
303.15 K, m1 = 0.2501	1011.07 ± 24	0.8376 ± 0.084
303.15 K, m1 = 0.2999	1014.11 ± 24	0.8489 ± 0.085
303.15 K, m1 = 0.3312	1015.94 ± 24	0.8561 ± 0.086
303.15 K, m1 = 0.3996	1019.95 ± 24	0.8615 ± 0.086
303.15 K, m1 = 0.5001	1025.74 ± 25	0.8719 ± 0.087
303.15 K, m1 = 0.6672	1035.36 ± 25	0.9256 ± 0.093
303.15 K, m1 = 0.9962	1053.74 ± 25	0.9448 ± 0.095
303.15 K, m1 = 1.331	1071.78 ± 26	1.026 ± 0.1
303.15 K, m1 = 1.669	1089.37 ± 26	1.073 ± 0.11
303.15 K, m1 = 2	1106.08 ± 27	1.123 ± 0.11
303.15 K, m1 = 2.327	1122.01 ± 27	1.179 ± 0.12
303.15 K, m1 = 2.667	1138.64 ± 27	1.244 ± 0.12
303.15 K, m1 = 2.994	1155.01 ± 28	1.319 ± 0.13
303.15 K, m1 = 3.33	1167.41 ± 28	1.374 ± 0.14
303.15 K, m1 = 3.667	1181.92 ± 28	1.429 ± 0.14
308.15 K, m1 = 0.05	997.29 ± 24	0.7303 ± 0.073
308.15 K, m1 = 0.1	1000.35 ± 24	0.7339 ± 0.074
308.15 K, m1 = 0.1498	1003.35 ± 24	0.7412 ± 0.074
308.15 K, m1 = 0.1997	1006.33 ± 24	0.7497 ± 0.075
308.15 K, m1 = 0.2501	1009.25 ± 24	0.7567 ± 0.076
308.15 K, m1 = 0.2999	1012.25 ± 24	0.7652 ± 0.077
308.15 K, m1 = 0.3312	–	0.7753 ± 0.078
308.15 K, m1 = 0.3996	1018.02 ± 24	0.7799 ± 0.078
308.15 K, m1 = 0.5001	1023.74 ± 25	0.7884 ± 0.079
308.15 K, m1 = 0.6672	–	0.8371 ± 0.084
308.15 K, m1 = 0.9962	–	0.8554 ± 0.086
308.15 K, m1 = 1.331	–	0.9337 ± 0.094
308.15 K, m1 = 1.669	–	0.9775 ± 0.098
308.15 K, m1 = 2	–	1.016 ± 0.1
308.15 K, m1 = 2.327	–	1.059 ± 0.11
308.15 K, m1 = 2.667	–	1.116 ± 0.11
308.15 K, m1 = 2.994	–	1.188 ± 0.12
308.15 K, m1 = 3.33	–	1.238 ± 0.12
308.15 K, m1 = 3.667	–	1.29 ± 0.13
313.15 K, m1 = 0.05	995.42 ± 24	0.6585 ± 0.066
313.15 K, m1 = 0.1	998.45 ± 24	0.6663 ± 0.067
313.15 K, m1 = 0.1498	1001.41 ± 24	0.6726 ± 0.067
313.15 K, m1 = 0.1997	1004.36 ± 24	0.6808 ± 0.068
313.15 K, m1 = 0.2501	1007.25 ± 24	0.6869 ± 0.069
313.15 K, m1 = 0.2999	1010.22 ± 24	0.698 ± 0.07
313.15 K, m1 = 0.3312	–	0.7043 ± 0.071
313.15 K, m1 = 0.3996	1015.94 ± 24	0.7078 ± 0.071
313.15 K, m1 = 0.5001	1021.61 ± 25	0.716 ± 0.072
313.15 K, m1 = 0.6672	–	0.7631 ± 0.077
313.15 K, m1 = 0.9962	–	0.7748 ± 0.078
313.15 K, m1 = 1.331	–	0.8534 ± 0.086
313.15 K, m1 = 1.669	–	0.8905 ± 0.089
313.15 K, m1 = 2	–	0.9243 ± 0.093
313.15 K, m1 = 2.327	–	0.9706 ± 0.097
313.15 K, m1 = 2.667	–	1.019 ± 0.1
313.15 K, m1 = 2.994	–	1.077 ± 0.11
313.15 K, m1 = 3.33	–	1.125 ± 0.11
313.15 K, m1 = 3.667	–	1.171 ± 0.12
318.15 K, m1 = 0.05	993.38 ± 24	0.6063 ± 0.061
318.15 K, m1 = 0.1	996.37 ± 24	0.6087 ± 0.061
318.15 K, m1 = 0.1498	999.3 ± 24	0.6141 ± 0.062
318.15 K, m1 = 0.1997	1002.21 ± 24	0.6219 ± 0.062
318.15 K, m1 = 0.2501	1005.09 ± 24	0.6274 ± 0.063
318.15 K, m1 = 0.2999	1008.03 ± 24	0.6362 ± 0.064
318.15 K, m1 = 0.3312	–	0.6443 ± 0.065
318.15 K, m1 = 0.3996	1013.7 ± 24	0.6502 ± 0.065
318.15 K, m1 = 0.5001	1019.32 ± 24	0.6543 ± 0.066
318.15 K, m1 = 0.6672	–	0.6978 ± 0.07
318.15 K, m1 = 0.9962	–	0.7101 ± 0.071
318.15 K, m1 = 1.331	–	0.7819 ± 0.078
318.15 K, m1 = 1.669	–	0.8167 ± 0.082
318.15 K, m1 = 2	–	0.8473 ± 0.085
318.15 K, m1 = 2.327	–	0.8914 ± 0.089
318.15 K, m1 = 2.667	–	0.9455 ± 0.095
318.15 K, m1 = 2.994	–	0.9872 ± 0.099
318.15 K, m1 = 3.33	–	1.027 ± 0.1
318.15 K, m1 = 3.667	–	1.07 ± 0.11
